Like-named read-outs stand apart in the source and are kept apart here.
Legend:
U251 human CNS tumor = assay: In vivo antitumor activity vs sc U251 xenograft
[1] = test system: ZR-75-1 human mammary tumor; assay: In vivo antitumor activity vs sc ZR-75-1 xenograft; settings: for Tumor-Free-Surv/Total: sc ZR-75-1
P388/CPA leukemia = assay: Antitumor activity against IP-implanted P388/CPA leukemia in mice; format: in vivo, murine; settings: for 50-DAY SURV/TOTAL / % ILS / APPROX. NET LOG10 CHANGE IN TUMOR BURDEN AT END OF Rx / MEDIAN DAY OF DEATH: P388/CPA, Q1D × 5 (1); for MEDIAN DAY OF DEATH: dying mice only
OVCAR-5 ovarian tumor = assay: In vivo antitumor activity vs sc OVCAR-5 xenograft; design: species or system human; settings: IP 90 mg/kg/dose, Days 12-16
HT29 human colon tumor = assay: In vivo antitumor activity vs sc HT29 xenograft
CAKI-1 human renal tumor = assay: In vivo antitumor activity vs sc CAKI-1 xenograft
SK-MEL-28 melanoma = assay: In vivo antitumor activity vs sc SK-MEL-28 xenograft; design: species or system human; settings: IP 90 mg/kg/dose, Days 8-12
human MX-1 mammary tumor [2] = assay: In vivo antitumor activity vs s.c.-implanted human MX-1 mammary tumor xenograft in athymic mice; settings: sc MX-1
human MX-1 mammary tumor [3] = assay: In vivo antitumor activity vs i.c.-implanted human MX-1 mammary tumor xenograft in athymic mice; settings: ic MX-1, Days 1-5
SF-295 CNS tumor = assay: In vivo antitumor activity vs sc SF-295 xenograft; design: species or system human; settings: IP 90 mg/kg/dose, Days 9-13
[4] = test system: NCI-H82 small cell lung tumor; assay: In vivo antitumor activity vs sc NCI-H82 xenograft; design: species or system human
P388/L-PAM leukemia = settings: for MEDIAN DAY OF DEATH: dying mice only
[5] = test system: UISO-BCA-1 human mammary tumor; assay: In vivo antitumor activity vs sc UISO-BCA-1 xenograft; settings: IP 90 mg/kg/dose, Days 16-20
MCF7 human mammary tumor = assay: In vivo antitumor activity vs sc MCF7 xenograft
[6] = test system: NCI-H460 nonsmall cell lung tumor; assay: In vivo antitumor activity vs sc NCI-H460 xenograft; design: species or system human; settings: IP 90 mg/kg/dose, Days 6-10
P388/BCNU leukemia = assay: Antitumor activity against IP-implanted P388/BCNU leukemia in mice; settings: for MEDIAN DAY OF DEATH: dying mice only
[7] = highest nontoxic doses evaluated, versus DM-PEN
[8] = highest nontoxic doses evaluated, versus PEN
[9] = sc HT29, IP 90 mg/kg/dose, Days 14-18
[10] = sc CAKI-1, IP 90 mg/kg/dose, Days 19-23
[11] = sc NCI-H82, IP 60 mg/kg/dose, Days 13-17
[12] = P388/L-PAM, IP 60.0 mg/kg/dose, Q1D × 5 (1)
[13] = P388/L-PAM, IP 90.0 mg/kg/dose, Q1D × 5 (1)
[14] = P388/L-PAM, IP 135.0 mg/kg/dose, Q1D × 5 (1)
[15] = sc MCF7, IP 60 mg/kg/dose, Days 14-18
[16] = P388/BCNU, IP 60.0 mg/kg/dose, Q1D × 5 (1)
[17] = P388/BCNU, IP 90.0 mg/kg/dose, Q1D × 5 (1)
[18] = P388/BCNU, IP 135.0 mg/kg/dose, Q1D × 5 (1)
[19] = P388/0, IP 60.0 mg/kg/dose, Q1D × 5 (1)
[20] = P388/0, IP 90.0 mg/kg/dose, Q1D × 5 (1)
[21] = P388/0, IP 135.0 mg/kg/dose, Q1D × 5 (1)

## COc1nc(C(Cl)(Cl)Cl)c(Cl)c(OC(C)=O)c1Cl [DM-A-PEN]
U251 human CNS tumor; s.c.-implanted U251 human CNS tumor
  activity (in words): moderate to modest activity
U251 human CNS tumor; sc U251, IP 90 mg/kg/dose, Days 19-23
  Tumor-Free-Surv/Total: 0/5
[1]; s.c.-implanted ZR-75-1 human mammary tumor
  activity (in words): moderate to modest activity
[1]; IP 60 mg/kg/dose, Days 10-14
  Tumor-Free-Surv/Total: 0/5
[1]; IP 90 mg/kg/dose, Days 8-12
  Tumor-Free-Surv/Total: 0/5
P388/CPA leukemia; IP 60.0 mg/kg/dose
  50-DAY SURV/TOTAL: 0/6
  % ILS: +54%
  APPROX. NET LOG10 CHANGE IN TUMOR BURDEN AT END OF Rx: −1.1
  MEDIAN DAY OF DEATH: 17.0
P388/CPA leukemia; IP 90.0 mg/kg/dose
  50-DAY SURV/TOTAL: 0/6
  % ILS: +86%
  APPROX. NET LOG10 CHANGE IN TUMOR BURDEN AT END OF Rx: −3.1
P388/CPA leukemia; IP 135.0 mg/kg/dose
  50-DAY SURV/TOTAL: 0/6
  APPROX. NET LOG10 CHANGE IN TUMOR BURDEN AT END OF Rx: −5.7
  MEDIAN DAY OF DEATH: 25.0
P388/CPA leukemia; [7]
  more active than DM-PEN against P388/CPA (difference in log cell kill): 4.6 log cell kill
P388/CPA leukemia; [8]
  more active than PEN against P388/CPA (difference in log cell kill): 7.4 log cell kill
OVCAR-5 ovarian tumor
  T-C: 4.0 days
  Tumor-Free-Surv/Total: 0/5
HT29 human colon tumor; s.c.-implanted HT29 human colon tumor
  activity (in words): moderate to modest activity
HT29 human colon tumor; [9]
  T-C: 5.8 days
  Tumor-Free-Surv/Total: 0/5
CAKI-1 human renal tumor; s.c.-implanted CAKI-1 human renal tumor
  activity (in words): moderate to modest activity
CAKI-1 human renal tumor; [10]
  T-C: 8.4 days
  Tumor-Free-Surv/Total: 0/5
SK-MEL-28 melanoma
  T-C: 0.7 days
  Tumor-Free-Surv/Total: 0/5
Human MX-1 mammary tumor [2]; IP 60 mg/kg/dose (LD20), Days 15-19
  Tumor-Free-Surv/Total: 3/5
Human MX-1 mammary tumor [2]; IP 60 mg/kg/dose, Days 14-18
  Tumor-Free-Surv/Total: 4/5
Human MX-1 mammary tumor [2]; IP 60 mg/kg/dose, Days 15-19
  Dose (mg/kg) with observed lethality level: 60 (LD20)
Human MX-1 mammary tumor [2]; IP 90 mg/kg/dose, Days 12-16
  T-C: >41.0 days
  Tumor-Free-Surv/Total: 5/5
Human MX-1 mammary tumor [2]; oral (gavage) 135 mg/kg/dose, Days 13-17
  Tumor-Free-Surv/Total: 5/5
Human MX-1 mammary tumor [3]; IP 60 mg/kg/dose
  Median % ILS (dying mice only): +60%
Human MX-1 mammary tumor [3]; oral (gavage) 135 mg/kg/dose
  Median % ILS (dying mice only): +88%
SF-295 CNS tumor
  T-C: 0.7 days
  Tumor-Free-Surv/Total: 0/5
[4]; s.c.-implanted NCI-H82 small cell lung tumor
  activity (in words): moderate to modest activity
[4]; [11]
  T-C: 7.2 days
  Tumor-Free-Surv/Total: 0/5
P388/L-PAM leukemia; [12]
  50-DAY SURV/TOTAL: 0/6
  % ILS: +14%
  APPROX. NET LOG10 CHANGE IN TUMOR BURDEN AT END OF Rx: +1.2
  MEDIAN DAY OF DEATH: 18.0
P388/L-PAM leukemia; [13]
  50-DAY SURV/TOTAL: 0/6
  % ILS: +14%
  APPROX. NET LOG10 CHANGE IN TUMOR BURDEN AT END OF Rx: +1.2
  MEDIAN DAY OF DEATH: 18.0
P388/L-PAM leukemia; [14]
  50-DAY SURV/TOTAL: 0/6
  % ILS: +35%
  APPROX. NET LOG10 CHANGE IN TUMOR BURDEN AT END OF Rx: −0.8
  Toxicity / lethality level at the dosage (LD): LD17
  MEDIAN DAY OF DEATH: 19.0
P388/L-PAM leukemia; highest nontoxic doses evaluated, versus PEN or DM-PEN
  more active than PEN or DM-PEN against P388/L-PAM (difference in log cell kill): 0.2-0.3 log cell kill
P388/L-PAM leukemia; mouse, in vivo
  activity in the P388/L-PAM tumor model (in words): none of the three showed significant activity
[5]
  T-C: -2.4 days
  Tumor-Free-Surv/Total: 0/5
MCF7 human mammary tumor; s.c.-implanted MCF7 human mammary tumor
  activity (in words): moderate to modest activity
MCF7 human mammary tumor; [15]
  T-C: 7.1 days
  Tumor-Free-Surv/Total: 0/5
[6]
  T-C: -0.6 days
  Tumor-Free-Surv/Total: 0/5
P388/BCNU leukemia; [16]
  50-DAY SURV/TOTAL: 1/6
  % ILS: +44%
  APPROX. NET LOG10 CHANGE IN TUMOR BURDEN AT END OF Rx: 0
  MEDIAN DAY OF DEATH: 13.0
P388/BCNU leukemia; [17]
  50-DAY SURV/TOTAL: 0/6
  % ILS: +77%
  APPROX. NET LOG10 CHANGE IN TUMOR BURDEN AT END OF Rx: −2.3
  MEDIAN DAY OF DEATH: 16.0
P388/BCNU leukemia; [18]
  50-DAY SURV/TOTAL: 0/6
  APPROX. NET LOG10 CHANGE IN TUMOR BURDEN AT END OF Rx: −4.1
  Toxicity / lethality level at the dosage (LD): LD17
  MEDIAN DAY OF DEATH: 21.0
P388/BCNU leukemia; [7]
  more active than DM-PEN against P388/BCNU (difference in log cell kill): 1.5 log cell kill
P388/BCNU leukemia; [8]
  more active than PEN against P388/BCNU (difference in log cell kill): 3.5 log cell kill
P388/0 leukemia; [19]
  50-DAY SURV/TOTAL: 0/6
  % ILS: +72%
  APPROX. NET LOG10 CHANGE IN TUMOR BURDEN AT END OF Rx: −3.1
P388/0 leukemia; P388/0, IP 60.0 mg/kg/dose, Q1D × 5 (1), dying mice only
  MEDIAN DAY OF DEATH: 19.0
P388/0 leukemia; [20]
  50-DAY SURV/TOTAL: 0/6
  % ILS: +95%
  APPROX. NET LOG10 CHANGE IN TUMOR BURDEN AT END OF Rx: −5.0
P388/0 leukemia; [21]
  50-DAY SURV/TOTAL: 0/6
  % ILS: +159%
  APPROX. NET LOG10 CHANGE IN TUMOR BURDEN AT END OF Rx: ~−6.8
  Toxicity / lethality level at the dosage (LD): LD33
P388/0 leukemia; [7]
  more active than DM-PEN against P388/O (difference in log cell kill): 1.9 log cell kill
P388/0 leukemia; [8]
  more active than PEN against P388/0 (difference in log cell kill): 0.4 log cell kill

Source: US6376518B1, “Acyl derivatives of 4-demethylpenclomedine, use thereof and preparation thereof” (Southern Research Institute, priority 1999, dated 2002)
